How the values were obtained:
HT-29 [1] = assay: Antiproliferative activity against human HT-29 cells assessed as cell growth inhibition incubated for 72 hrs by MTT assay; format: functional
U-87 MG [2] = assay: Antiproliferative activity against human U87 cells assessed as cell growth inhibition incubated for 72 hrs by MTT assay; format: functional, U-87MG ATCC
MCF7 [3] = assay: Antiproliferative activity against human MCF7 cells assessed as cell growth inhibition incubated for 72 hrs by MTT assay; format: functional
A2780 [4] = assay: Antiproliferative activity against human A2780 cells assessed as cell growth inhibition incubated for 72 hrs by MTT assay; format: functional
NCI-H460 [5] = assay: Antiproliferative activity against human NCI-H460 cells assessed as cell growth inhibition incubated for 72 hrs by MTT assay; format: functional
A-431 [6] = assay: Antiproliferative activity against human A-431 cells assessed as cell growth inhibition incubated for 72 hrs by MTT assay; format: functional
DU-145 [7] = assay: Antiproliferative activity against human DU-145 cells assessed as cell growth inhibition incubated for 72 hrs by MTT assay; format: functional
BE(2)-C [8] = assay: Antiproliferative activity against human BE2C cells assessed as cell growth inhibition incubated for 72 hrs by MTT assay; format: functional
[9] = Antiproliferative activity against human SJG2 cells assessed as cell growth inhibition incubated for 72 hrs by MTT assay; format: functional; conditions: SJ-G2
MIA PaCa-2 [10] = assay: Antiproliferative activity against human MIA PaCa-2 cells assessed as cell growth inhibition incubated for 72 hrs by MTT assay; format: functional
[11] = Cytotoxicity against human MCF-10A cells assessed as cell growth inhibition incubated for 72 hrs by MTT assay; format: toxicity, cell-based
HT-29 [12] = assay: Antiproliferative activity against human HT-29 cells assessed as cell growth inhibition at 25 uM incubated for 72 hrs by MTT assay relative to control; format: functional
U-87 MG [13] = assay: Antiproliferative activity against human U87 cells assessed as cell growth inhibition at 25 uM incubated for 72 hrs by MTT assay relative to control; format: functional, U-87MG ATCC
MCF7 [14] = assay: Antiproliferative activity against human MCF7 cells assessed as cell growth inhibition at 25 uM incubated for 72 hrs by MTT assay relative to control; format: functional
A2780 [15] = assay: Antiproliferative activity against human A2780 cells assessed as cell growth inhibition at 25 uM incubated for 72 hrs by MTT assay relative to control; format: functional
NCI-H460 [16] = assay: Antiproliferative activity against human NCI-H460 cells assessed as cell growth inhibition at 25 uM incubated for 72 hrs by MTT assay relative to control; format: functional
A-431 [17] = assay: Antiproliferative activity against human A-431 cells assessed as cell growth inhibition at 25 uM incubated for 72 hrs by MTT assay relative to control; format: functional
DU-145 [18] = assay: Antiproliferative activity against human DU-145 cells assessed as cell growth inhibition at 25 uM incubated for 72 hrs by MTT assay relative to control; format: functional
BE(2)-C [19] = assay: Antiproliferative activity against human BE2C cells assessed as cell growth inhibition at 25 uM incubated for 72 hrs by MTT assay relative to control; format: functional
[20] = Antiproliferative activity against human SJG2 cells assessed as cell growth inhibition at 25 uM incubated for 72 hrs by MTT assay relative to control; format: functional; conditions: SJ-G2
MIA PaCa-2 [21] = assay: Antiproliferative activity against human MIA PaCa-2 cells assessed as cell growth inhibition at 25 uM incubated for 72 hrs by MTT assay relative to control; format: functional
[22] = Cytotoxicity against human MCF-10A cells assessed as cell growth inhibition at 25 uM incubated for 72 hrs by MTT assay relative to control; format: toxicity, cell-based

SMILES | GI50 (HT-29 [1]) [µM] | GI50 (U-87 MG [2]) [µM] | GI50 (MCF7 [3]) [µM] | GI50 (A2780 [4]) [µM] | GI50 (NCI-H460 [5]) [µM] | GI50 (A-431 [6]) [µM] | GI50 (DU-145 [7]) [µM] | GI50 (MIA PaCa-2 [10]) [µM] | GI50 (BE(2)-C [8]) [µM] | GI50 [9] [µM] | GI50 at 72 h [11] [µM] | inhibition at 25 µM (HT-29 [12]) [%] | inhibition at 25 µM (U-87 MG [13]) [%] | inhibition at 25 µM (MCF7 [14]) [%] | inhibition at 25 µM (A2780 [15]) [%] | inhibition at 25 µM (NCI-H460 [16]) [%] | inhibition at 25 µM (A-431 [17]) [%] | inhibition at 25 µM (DU-145 [18]) [%] | inhibition at 25 µM (BE(2)-C [19]) [%] | inhibition at 25 µM [20] [%] | also measured
O=C1NC(c2ccc3ccccc3c2)Nc2ccccc21 (configuration not stated) | 2.7 | 5 | 2.8 | 2.9 | 2.9 | 3 | 4.2 | 2.8 | 2.9 | 2.8 | 3.5 | > 100 | 94 | 135 | > 100 | 100 | > 100 | > 100 | 98 | > 100 | inhibition at 25 µM (MIA PaCa-2 [21]): > 100%; inhibition at 72 h, 25 µM [22]: 99%
O=C1NC(c2cccc(Br)c2)Nc2ccccc21 (configuration not stated) | 2.6 | 4.1 | 2 | 2.6 | 1.9 | 2.7 | 2.9 | 3.2 | 2.4 | 1.9 | 3.9 | > 100 | 98 | 104 | 99 | 101 | > 100 | > 100 | > 100 | > 100 | inhibition at 25 µM (MIA PaCa-2 [21]): 90%; inhibition at 72 h, 25 µM [22]: 99%
Cc1ccc(/C=C/c2nc(O)c3ccccc3n2)cc1 | 2.1 | 19 | 1.2 | 3.7 | 9.4 | 4 | 7.7 | 3.3 | 3.6 | 13 | 3.8 | > 100 | 51 | > 100 | 97 | 69 | 93 | 61 | 82 | 57 | inhibition at 25 µM (MIA PaCa-2 [21]): 85%; inhibition at 72 h, 25 µM [22]: 86%

More lines, main results first:

GI50 (HT-29 [1]) [µM] | GI50 (U-87 MG [2]) [µM] | GI50 (MCF7 [3]) [µM] | GI50 (A2780 [4]) [µM] | GI50 (NCI-H460 [5]) [µM] | GI50 (A-431 [6]) [µM] | GI50 (DU-145 [7]) [µM] | GI50 (MIA PaCa-2 [10]) [µM] | SMILES | GI50 (BE(2)-C [8]) [µM] | GI50 [9] [µM] | GI50 at 72 h [11] [µM] | inhibition at 25 µM (HT-29 [12]) [%] | inhibition at 25 µM (U-87 MG [13]) [%] | inhibition at 25 µM (MCF7 [14]) [%] | inhibition at 25 µM (A2780 [15]) [%] | inhibition at 25 µM (NCI-H460 [16]) [%] | inhibition at 25 µM (A-431 [17]) [%] | inhibition at 25 µM (DU-145 [18]) [%] | inhibition at 25 µM (BE(2)-C [19]) [%] | inhibition at 25 µM [20] [%] | also measured
3.2 | 13 | 3.1 | 3.6 | 11 | 11 | 8.9 | 14 | O=c1[nH]c(/C=C/c2ccc(Br)cc2)nc2ccccc12 | 6.4 | 15 | 4.6 | 94 | 83 | > 100 | 93 | 70 | 78 | 77 | 78 | 76 | inhibition at 25 µM (MIA PaCa-2 [21]): 68%; inhibition at 72 h, 25 µM [22]: 86%
5.9 | 8.9 | 1.3 | 3.1 | 2.6 | 3 | 1.9 | 2.9 | O=c1[nH]c(/C=C/c2cccc(O)c2)nc2ccccc12 | 1.8 | 2.5 | 3.1 | > 100 | 73 | > 100 | > 100 | > 100 | > 100 | > 100 | > 100 | > 100 | inhibition at 25 µM (MIA PaCa-2 [21]): > 100%; inhibition at 72 h, 25 µM [22]: 97%
0.35 | 0.48 | 0.22 | 0.3 | 0.37 | 0.28 | 0.35 | 0.34 | O=c1[nH]c(/C=C/c2ccc(O)cc2)nc2ccccc12 | 0.25 | 0.29 | 0.38 | > 100 | > 100 | > 100 | > 100 | > 100 | > 100 | > 100 | > 100 | > 100 | inhibition at 25 µM (MIA PaCa-2 [21]): > 100%; inhibition at 72 h, 25 µM [22]: > 100%
